Read-outs that look alike come from different tables or passages of the source.
Legend:
[1] = system: hiPSC-derived immature human dorsal root ganglia neuron-like cells; test: PeriTox (UKN5a) neurite outgrowth assay; type: cell-based; settings: for parent/metabolite potency ratio (BMC25): listed under the metabolite
Experimental: PeriTox assay was performed as previously described. In brief, cryopreserved hiPSC-derived immature human dorsal root ganglia neuron-like cells were thawed and plated at a density of 100,000 cells/cm^2 into matrigel-coated 96-well plates. The cells were cultured in 75 µL PeriTox differentiation medium (PDM) consisting of 25% KSR-S and 75% N2-S media supplemented with 1.5 µM CHIR99021, 1.5 µM SU5402, and 5 µM DAPT (KSR-S: knockout DMEM with 15% serum replacement, 1x Glutamax, 1x nonessential amino acids, and […] beta-mercaptoethanol; N2-S: DMEM/F12, with 2 mM Glutamax, 0.1 mg/mL apotransferrin, 1.55 mg/mL glucose, 25 µg/mL insulin, […] putrescine, 30 nM selenium, and 20 nM progesterone). After one hour, 25 µL PDM with 4x concentrated serial dilutions of the test compounds was added to the cells.
The image acquisition and analysis were conducted according to established protocols. The cells were stained with Hoechst H-33342 (1 µg/mL) to visualise nuclei and calcein-AM (1 µM) to label viable cell structures. Fluorescent images were acquired using an automated imaging system. An image analysis algorithm detected nuclei to define somatic regions, which were then excluded from the total calcein-positive area. The remaining signal was quantified as the neurite area.
In the first step, matched technical replicates were averaged. […] For visualisation, GraphPad Prism 9 was used. […]
Supplementary Figure S1: Comparison of data from the MitoMet test and the PeriTox test. A) Exposure scheme for the PeriTox test (UKN5a):
For testing, cryopreserved hiPSC-derived immature human dorsal root ganglia neuron-like cells were thawed and plated into 96-well plates. Cells were treated with toxicants at one h after plating. Neurite outgrowth and viability were determined at 24 h later, using automated high content imaging. B) Benchmark concentrations (BMC25) were calculated as a measure for “onset of toxicity” for the MitoMet (UKN4b; as described in Figure 1) and UKN5a assay. If no BMC could be determined, the highest tested concentration was used as surrogate endpoint. The arrows indicate the sensitivity shifts of parent vs metabolite in the respective assay. […]

LUHMES cells = test: MitoMet (UKN4b) neurite outgrowth assay; type: cell-based, human; settings: for IC25: benchmark response 25%, neurite area, 24 h exposure, three independent experiments, read-out: BMC25 neurite outgrowth
Experimental: Figure 1 (A) A strategy scheme to assess metabolite-mediated hazard in NAMs used for neurotoxicity or developmental neurotoxicity. Parent and metabolite compounds are tested separately in the respective assay. This strategy is applicable when there is prior knowledge of metabolite formation. A decision rule based on the relative toxicities (X) of the parent and metabolite may be applied to decide whether next-generation risk assessment (NGRA) should be applied to the metabolite. The value of X may be defined according to the problem formulation and the NAM used. (B) An assay scheme of the neurite outgrowth assay used here for exemplification: Proliferating LUHMES cells were replated one day before differentiation was initiated (day −1). After two days (day 2) in differentiation medium, the cells were replated into assay format (96-well). At this point, neurite growth was re-initiated. The cells were treated with toxicants 1 h after replating. Neurite outgrowth and viability were determined 24 h later, using automated high content imaging. (C) Comparison of neurite outgrowth of cultures treated with bromethalin and desmethyl-bromethalin one exemplary parent/metabolite pair (chemical structures shown). […] The curves are based on data from three independent experiments and were fitted using a four-parameter Hill function. Data points shown are arithmetic means of data from independent experiments ±SEM. In each independent experiment, the technical replicates were measured and averaged. A benchmark response (BMR) of 25% was used as specified in the detailed assay description, and the respective benchmark concentration (BMC25) was determined. […] (D) Microscopic images of calcein-stained LUHMES cells. Similar images are used for neurite quantification. Treatment with 40 nM of the parent (left) or metabolite (right). The scale bar in orange corresponds to 50 µm. […] It stands under panel C and to the right of panel D, and was assigned to C.
The MitoMet neurite outgrowth assay was performed as previously described. In brief, all cell culture dishes and flasks were pre-coated with 50 μg/mL poly-l-ornithine (PLO) and 1 μg/mL fibronectin. Proliferating LUHMES cells were maintained in AdvDMEM/F12 containing L-glutamine (2 mM), N2 supplement (1x), and FGF (40 ng/mL). For pre-differentiation, the cells were replated at a density of 46,000 cells/cm^2 one day prior to the induction of differentiation (defined as the day of differentiation, Day −1). Differentiation was initiated by exchanging the culture medium for AdvDMEM/F12 supplemented with L-glutamine (2 mM), N2 supplement (1x), dibutyryl-cAMP (1 mM), tetracycline (1 µg/mL), and GDNF (2 ng/mL). After two days of differentiation (Day 2), the cells were replated (100,000 cells/cm^2) into 96-well plates. The final assay medium consisted of glucose-free AdvDMEM/F12 supplemented with galactose (18 mM), L-glutamine (2 mM), and tetracycline (1 µg/mL). One hour after replating, the cells were treated with a 10× concentrated stock solution of the test compound. Neurite outgrowth and viability were determined 24 h later, using automated high content imaging.
The image acquisition and analysis were conducted according to established protocols. The cells were stained with Hoechst H-33342 (1 µg/mL) to visualise nuclei and calcein-AM (1 µM) to label viable cell structures. Fluorescent images were acquired using an automated imaging system.

[2] = system: hiPSC-derived neural crest-like cells; test: cMINC (UKN2) neural crest cell migration assay; type: cell-based, human; settings: listed under the metabolite
Experimental: Figure 6 The transfer of the metabolisation module to the neural crest cell migration assay (cMINC). (A) A schematic of the cMINC (circular migration of neural crest cells) assay. The cells were seeded around a central stopper to create a cell-free circular area. Migration was initiated 24 h after seeding by removing the stopper. This is defined as the day of migration (DoM) 0. On DoM 1, the cells were exposed to toxicants. After 24 h of exposure, both cell migration and viability were quantified, using automated high-content imaging. (B) Compatibility of the metabolisation module (preincubation with 500 µg/mL S9 at 37 °C for 2 h) with the cMINC assay: The setup was as described in Figure 4 and as exemplified in Figure 5A. No compound was added (solvent control). The S9 mixture (at 500 µg/mL ± NADPH) was added to the normal cell culture medium of the cMINC assay (so that the addition was 10% of the total volume). Data are from three independent experiments. (C,D) The concentration-dependent effects on migration were evaluated for metabolite mixtures generated from bromethalin (C) or chlorfenapyr (D). […] The arrows indicate the direction of sensitivity shift between NADPH-dependent and -independent metabolite mixtures, with accompanying fold change values. The concentrations are given as nominal concentrations of the parent compound. Abbreviations: n.s., not significant. TEXT PRINTED IN THE PICTURE: (C) Bromethalin: x30 | (D) Chlorfenapyr: x15
The MINC assay was performed as previously described. Briefly, 96-well plates were prepared by inserting a central 2 mm diameter stopper (Platypus Technologies, Madison, WI, USA) into pre-coated wells with a composite poly-L-ornithine (PLO; 10 µg/mL), fibronectin (1 µg/mL), and laminin (1 µg/mL) matrix. […] After a further 24 h (DoM 2), cell migration and viability were assessed. […] High content imaging was performed, and data were analysed using the RingAssay V1 software (http://invitrotox.uni-konstanz.de/, accessed on 3 February 2025). […]

Structure (SMILES)	effect on peripheral neurite outgrowth ([1]; result in words)	IC25 (LUHMES cells; Homo sapiens)	parent/metabolite potency ratio (BMC25) [1]	increase in potency of metabolite compared to parent (BMC25 ratio) [2]	neurite area, metabolite compared to parent at equimolar concentrations (LUHMES cells; 40 nM, calcein-stained LUHMES cells)	IC25 (LUHMES cells)	fold change between BMC25 values of parent and metabolite (potency ratio, parent divided by metabolite) (LUHMES cells; listed under the metabolite, >1 = metabolite more potent)
O=C(c1ccccc1)c1ccccc1 [Benzophenone]	neither benzophenone nor its hydroxy metabolite showed any significant effect	> 500 µM					
COC(=O)Nc1nc2ccccc2[nH]1 [Carbendazim]		4.8 µM	0.2				
O=[N+]([O-])c1cc([N+](=O)[O-])c(Nc2c(Br)cc(Br)cc2Br)c(C(F)(F)F)c1 [Desmethyl-bromethalin]			3	44 fold	clear reduction in the neurite area	0.014 µM	57 fold

Source: paper PMC12428754, “Testing Strategies for Metabolite-Mediated Neurotoxicity” (International Journal of Molecular Sciences, 2025)
